Test results published in ChEMBL document CHEMBL5291721, “A preclinical secondary pharmacology resource illuminates target-adverse drug reaction associations of marketed drugs” (Nat Commun, 2023).
Where “and” joins values, the source holds several entries; their conditions need not be identical. Equal values may be shown once.

Tests used:
[1] = biological target: T1, 5-hydroxytryptamine receptor 1A (Homo sapiens, UniProt P08908)
T1 sequence (P08908 whole entry): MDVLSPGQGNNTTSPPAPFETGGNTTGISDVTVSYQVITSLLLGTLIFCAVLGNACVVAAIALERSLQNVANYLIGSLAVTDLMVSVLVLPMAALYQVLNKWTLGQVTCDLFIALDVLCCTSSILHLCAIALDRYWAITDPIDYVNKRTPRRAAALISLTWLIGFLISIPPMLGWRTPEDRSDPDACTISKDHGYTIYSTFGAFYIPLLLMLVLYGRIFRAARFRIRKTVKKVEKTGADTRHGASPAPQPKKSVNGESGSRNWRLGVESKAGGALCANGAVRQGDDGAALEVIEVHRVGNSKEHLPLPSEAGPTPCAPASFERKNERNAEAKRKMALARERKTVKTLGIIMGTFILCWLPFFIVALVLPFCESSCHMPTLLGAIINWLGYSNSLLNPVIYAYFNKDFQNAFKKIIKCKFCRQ

Mu-type opioid receptor = Mu-type opioid receptor (Homo sapiens, UniProt P35372)
Sequence of Mu-type opioid receptor (P35372 whole entry): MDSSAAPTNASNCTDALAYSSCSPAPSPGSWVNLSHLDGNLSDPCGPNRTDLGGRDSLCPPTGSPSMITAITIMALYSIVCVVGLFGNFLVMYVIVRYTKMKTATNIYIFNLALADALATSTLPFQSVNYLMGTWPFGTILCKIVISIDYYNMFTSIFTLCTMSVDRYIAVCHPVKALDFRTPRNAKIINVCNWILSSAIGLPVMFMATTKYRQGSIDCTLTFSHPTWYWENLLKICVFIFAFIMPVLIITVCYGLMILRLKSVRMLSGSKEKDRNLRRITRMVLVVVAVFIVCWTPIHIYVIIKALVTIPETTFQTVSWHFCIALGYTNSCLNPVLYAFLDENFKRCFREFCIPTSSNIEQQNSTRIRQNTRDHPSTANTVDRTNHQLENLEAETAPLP

[2] = biological target: cGMP-inhibited 3',5'-cyclic phosphodiesterase 3A (Homo sapiens, UniProt Q14432); type: functional
Sequence of cGMP-inhibited 3',5'-cyclic phosphodiesterase 3A (Q14432 whole entry): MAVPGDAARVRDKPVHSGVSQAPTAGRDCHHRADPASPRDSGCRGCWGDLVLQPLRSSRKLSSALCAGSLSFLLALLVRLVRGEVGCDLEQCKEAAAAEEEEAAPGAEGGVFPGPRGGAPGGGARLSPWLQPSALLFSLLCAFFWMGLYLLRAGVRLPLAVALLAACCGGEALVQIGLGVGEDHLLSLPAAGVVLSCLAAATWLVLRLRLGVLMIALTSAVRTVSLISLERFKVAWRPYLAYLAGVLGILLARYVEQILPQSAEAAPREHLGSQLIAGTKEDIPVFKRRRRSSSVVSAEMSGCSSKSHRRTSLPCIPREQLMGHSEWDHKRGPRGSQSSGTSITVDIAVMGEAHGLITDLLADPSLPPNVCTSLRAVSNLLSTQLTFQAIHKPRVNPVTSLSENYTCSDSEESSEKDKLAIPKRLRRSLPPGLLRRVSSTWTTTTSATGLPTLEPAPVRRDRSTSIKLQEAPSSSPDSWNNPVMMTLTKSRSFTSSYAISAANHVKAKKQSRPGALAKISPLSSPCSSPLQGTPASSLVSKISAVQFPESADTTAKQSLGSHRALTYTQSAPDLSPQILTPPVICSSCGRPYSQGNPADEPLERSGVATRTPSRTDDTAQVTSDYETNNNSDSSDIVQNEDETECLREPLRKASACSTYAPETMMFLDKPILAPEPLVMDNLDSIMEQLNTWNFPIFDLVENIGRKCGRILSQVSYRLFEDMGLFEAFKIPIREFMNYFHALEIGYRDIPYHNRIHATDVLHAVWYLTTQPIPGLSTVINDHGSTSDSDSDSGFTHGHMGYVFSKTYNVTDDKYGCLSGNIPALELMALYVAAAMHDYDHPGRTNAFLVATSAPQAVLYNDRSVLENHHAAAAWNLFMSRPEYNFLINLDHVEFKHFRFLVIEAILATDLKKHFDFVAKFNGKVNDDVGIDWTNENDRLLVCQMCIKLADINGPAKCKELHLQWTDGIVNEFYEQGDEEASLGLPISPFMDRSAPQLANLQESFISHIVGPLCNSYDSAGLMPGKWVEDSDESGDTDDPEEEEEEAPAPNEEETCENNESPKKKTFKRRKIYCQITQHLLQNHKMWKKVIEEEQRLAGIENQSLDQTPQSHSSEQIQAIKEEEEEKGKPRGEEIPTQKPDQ

[3] = biological target: Sodium-dependent noradrenaline transporter (Homo sapiens, UniProt P23975)
Sequence of Sodium-dependent noradrenaline transporter (P23975 whole entry): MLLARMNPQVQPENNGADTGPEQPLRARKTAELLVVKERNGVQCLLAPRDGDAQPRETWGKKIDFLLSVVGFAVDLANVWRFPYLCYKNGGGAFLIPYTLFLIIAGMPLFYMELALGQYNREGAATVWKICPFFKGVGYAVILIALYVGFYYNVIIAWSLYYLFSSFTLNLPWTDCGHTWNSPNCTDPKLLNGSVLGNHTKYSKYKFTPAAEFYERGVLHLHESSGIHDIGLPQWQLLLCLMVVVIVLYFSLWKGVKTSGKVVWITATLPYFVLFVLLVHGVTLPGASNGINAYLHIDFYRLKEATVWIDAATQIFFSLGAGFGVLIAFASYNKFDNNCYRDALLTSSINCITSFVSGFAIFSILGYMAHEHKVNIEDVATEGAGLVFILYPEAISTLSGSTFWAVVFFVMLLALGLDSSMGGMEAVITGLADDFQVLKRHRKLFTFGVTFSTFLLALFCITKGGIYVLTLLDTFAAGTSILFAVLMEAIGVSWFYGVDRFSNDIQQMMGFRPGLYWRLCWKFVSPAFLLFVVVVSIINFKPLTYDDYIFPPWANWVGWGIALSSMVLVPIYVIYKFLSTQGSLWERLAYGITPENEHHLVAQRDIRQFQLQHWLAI

Progesterone receptor = biological target: T2, Progesterone receptor (Homo sapiens, UniProt P06401)
T2 sequence (P06401 whole entry): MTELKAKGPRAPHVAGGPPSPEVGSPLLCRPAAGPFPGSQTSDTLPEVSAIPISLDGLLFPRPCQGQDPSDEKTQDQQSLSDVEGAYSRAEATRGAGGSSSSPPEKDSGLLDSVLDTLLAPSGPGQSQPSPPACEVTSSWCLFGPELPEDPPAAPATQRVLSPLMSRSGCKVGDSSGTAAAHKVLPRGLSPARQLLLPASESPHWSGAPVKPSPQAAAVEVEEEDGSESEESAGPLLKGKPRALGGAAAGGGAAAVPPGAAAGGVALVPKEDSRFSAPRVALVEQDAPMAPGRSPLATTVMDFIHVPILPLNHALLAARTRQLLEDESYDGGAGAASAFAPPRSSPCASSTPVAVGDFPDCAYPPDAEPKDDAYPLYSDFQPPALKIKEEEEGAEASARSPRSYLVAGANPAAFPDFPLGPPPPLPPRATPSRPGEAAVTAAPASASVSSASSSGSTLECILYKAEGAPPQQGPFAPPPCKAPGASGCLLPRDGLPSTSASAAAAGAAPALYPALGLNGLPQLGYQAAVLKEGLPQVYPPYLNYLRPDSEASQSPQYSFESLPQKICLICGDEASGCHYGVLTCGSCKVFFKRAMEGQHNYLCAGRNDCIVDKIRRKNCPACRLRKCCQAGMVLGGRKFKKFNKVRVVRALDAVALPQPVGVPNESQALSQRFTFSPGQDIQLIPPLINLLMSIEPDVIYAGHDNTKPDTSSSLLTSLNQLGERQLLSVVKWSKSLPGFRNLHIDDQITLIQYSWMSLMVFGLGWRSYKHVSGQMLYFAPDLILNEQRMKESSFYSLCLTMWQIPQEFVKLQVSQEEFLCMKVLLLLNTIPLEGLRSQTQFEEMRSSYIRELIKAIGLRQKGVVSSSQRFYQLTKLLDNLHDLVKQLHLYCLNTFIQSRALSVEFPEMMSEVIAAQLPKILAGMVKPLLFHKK

D(1A) dopamine receptor = D(1A) dopamine receptor (Homo sapiens, UniProt P21728)
Sequence of D(1A) dopamine receptor (P21728 whole entry): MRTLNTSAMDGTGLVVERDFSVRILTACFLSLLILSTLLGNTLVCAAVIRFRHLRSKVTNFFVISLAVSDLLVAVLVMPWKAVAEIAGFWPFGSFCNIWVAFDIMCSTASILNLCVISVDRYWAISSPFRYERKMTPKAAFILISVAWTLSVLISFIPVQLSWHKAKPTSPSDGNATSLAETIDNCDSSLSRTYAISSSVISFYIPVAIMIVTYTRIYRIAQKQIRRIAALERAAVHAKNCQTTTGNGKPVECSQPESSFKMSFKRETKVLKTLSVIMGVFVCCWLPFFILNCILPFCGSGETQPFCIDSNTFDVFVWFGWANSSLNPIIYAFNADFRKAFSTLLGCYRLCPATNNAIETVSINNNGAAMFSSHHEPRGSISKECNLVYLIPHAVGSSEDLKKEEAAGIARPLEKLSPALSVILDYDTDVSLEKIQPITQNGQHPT

[4] = biological target: Sodium-dependent serotonin transporter (Homo sapiens, UniProt P31645)
Sequence of Sodium-dependent serotonin transporter (P31645 whole entry): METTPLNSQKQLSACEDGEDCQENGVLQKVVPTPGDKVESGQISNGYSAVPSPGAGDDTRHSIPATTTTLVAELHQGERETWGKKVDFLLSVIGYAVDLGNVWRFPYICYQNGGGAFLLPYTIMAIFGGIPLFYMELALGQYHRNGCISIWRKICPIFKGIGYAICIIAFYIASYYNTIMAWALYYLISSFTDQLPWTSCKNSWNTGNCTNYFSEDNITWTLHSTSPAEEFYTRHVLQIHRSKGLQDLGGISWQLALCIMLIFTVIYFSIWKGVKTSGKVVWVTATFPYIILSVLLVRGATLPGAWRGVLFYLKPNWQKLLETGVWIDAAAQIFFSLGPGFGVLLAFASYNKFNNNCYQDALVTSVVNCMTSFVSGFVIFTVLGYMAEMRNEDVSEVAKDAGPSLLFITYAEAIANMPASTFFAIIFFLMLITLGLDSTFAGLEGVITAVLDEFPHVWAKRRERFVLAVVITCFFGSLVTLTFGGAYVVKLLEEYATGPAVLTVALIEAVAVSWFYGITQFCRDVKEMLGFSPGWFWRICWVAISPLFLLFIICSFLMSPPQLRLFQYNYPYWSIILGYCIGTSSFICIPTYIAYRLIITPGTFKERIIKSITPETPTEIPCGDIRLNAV

[5] = biological target: T3, Alpha-2C adrenergic receptor (Homo sapiens, UniProt P18825); type: functional
T3 sequence (P18825 whole entry): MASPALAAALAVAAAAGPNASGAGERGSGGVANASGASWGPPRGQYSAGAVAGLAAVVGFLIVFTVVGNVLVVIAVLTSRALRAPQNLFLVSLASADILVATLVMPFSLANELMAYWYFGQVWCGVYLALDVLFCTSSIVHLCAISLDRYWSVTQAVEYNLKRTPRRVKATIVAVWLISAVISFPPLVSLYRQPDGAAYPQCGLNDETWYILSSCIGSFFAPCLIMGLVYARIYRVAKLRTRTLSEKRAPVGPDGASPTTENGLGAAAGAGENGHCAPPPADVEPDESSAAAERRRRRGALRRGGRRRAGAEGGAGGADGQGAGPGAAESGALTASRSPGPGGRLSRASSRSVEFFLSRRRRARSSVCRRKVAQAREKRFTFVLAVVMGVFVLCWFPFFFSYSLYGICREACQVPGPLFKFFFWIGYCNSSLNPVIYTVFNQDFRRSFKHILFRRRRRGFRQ

[6] = biological target: T4, Equilibrative nucleoside transporter 1 (Homo sapiens, UniProt Q99808)
T4 sequence (Q99808 whole entry): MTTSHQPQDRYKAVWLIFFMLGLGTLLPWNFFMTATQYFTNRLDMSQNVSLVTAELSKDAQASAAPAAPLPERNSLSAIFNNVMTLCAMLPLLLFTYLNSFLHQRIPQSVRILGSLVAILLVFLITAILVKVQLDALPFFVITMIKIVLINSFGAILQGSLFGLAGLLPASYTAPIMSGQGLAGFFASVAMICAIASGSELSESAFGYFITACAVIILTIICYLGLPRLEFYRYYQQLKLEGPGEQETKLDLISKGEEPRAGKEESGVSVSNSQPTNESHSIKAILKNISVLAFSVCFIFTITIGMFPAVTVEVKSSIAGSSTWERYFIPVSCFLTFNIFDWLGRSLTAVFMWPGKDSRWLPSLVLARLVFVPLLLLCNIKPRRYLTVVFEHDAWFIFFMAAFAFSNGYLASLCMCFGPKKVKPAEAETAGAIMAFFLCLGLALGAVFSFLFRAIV
Also: assay procedure not described here.

Structure (SMILES) | AC50 [1] | AC50 (Mu-type opioid receptor) | AC50 [2] | AC50 [3] | AC50 (Progesterone receptor) | AC50 (D(1A) dopamine receptor) | AC50 [4] | AC50 [5] | AC50 [6]
N#Cc1ccc2c(c1)N(CCCN1CCC(O)CC1)c1ccccc1S2 [PERICIAZINE] | 8.8 µM | 4.59 µM | > 30 µM | 5.08 µM | 22.1 µM | – | – | – | –
OC[C@H]1O[C@@H](c2ccc(F)c(Cc3cc4ccccc4s3)c2)[C@H](O)[C@@H](O)[C@@H]1O [IPRAGLIFLOZIN] | > 30 µM | > 30 µM | > 30 µM | > 30 µM | > 30 µM | > 30 µM | > 30 µM | – | –
CN1CCC(=C2c3ccccc3Sc3ccccc32)CC1 [PIMETHIXENE] | 0.0145 µM | 8.56 µM | > 30 µM | 0.142 µM | > 30 µM | 0.0552 µM | 18.3 µM | – | –
O=C(O)COc1ccc(C(=O)c2cccs2)c(Cl)c1Cl | > 30 µM | > 30 µM | > 30 µM | > 30 µM | > 30 µM | > 30 µM | – | – | –
C[C@]1(Cn2ccnn2)[C@H](C(=O)O)N2C(=O)C[C@H]2S1(=O)=O [TAZOBACTAM] | > 30 µM | > 30 µM | > 30 µM | > 30 µM | > 30 µM | > 30 µM | – | – | –
FC(F)(F)c1ccc(CNc2ccc(Cc3c[nH]c4ncc(Cl)cc34)cn2)cn1 [PEXIDARTINIB] | 0.627 µM | 13.4 µM | > 30 µM | 3.96 µM | 9.95 µM | 20.2 µM | 8 µM | – | –
C[C@H]1O[C@@H](n2cc(F)c(=O)[nH]c2=O)[C@H](O)[C@@H]1O [DOXIFLURIDINE] | > 30 µM | > 30 µM | > 30 µM | > 30 µM | > 30 µM | > 30 µM | – | – | –
Cc1onc(-c2ccccc2)c1-c1ccc(S(N)(=O)=O)cc1 [VALDECOXIB] | > 30 µM | > 30 µM | > 30 µM | 2.31 µM | > 30 µM | > 30 µM | – | > 10 µM | > 30 µM
OC[C@@H](O)[C@@H](O)[C@H](O)[C@@H](O)CO [SORBITOL] | > 30 µM | > 30 µM | > 30 µM | > 30 µM | > 30 µM | > 30 µM | – | – | –
CCCN(CCC)C(=O)Cc1c(-c2ccc(Cl)cc2)nc2ccc(Cl)cn12 [ALPIDEM] | > 30 µM | 15.5 µM | > 30 µM | > 30 µM | > 30 µM | > 30 µM | – | > 30 µM | > 30 µM
COc1cc2nccc(Oc3ccc(NC(=O)C4(C(=O)Nc5ccc(F)cc5)CC4)cc3)c2cc1OC [CABOZANTINIB] | > 30 µM | > 30 µM | 27.9 µM | > 30 µM | > 10 µM | 4.42 µM | – | 26 µM | > 30 µM
CCCC(CCC)C(=O)O [VALPROIC ACID] | > 30 µM | > 30 µM | > 30 µM | > 30 µM | > 30 µM | > 30 µM | – | > 10 µM | > 30 µM
C[N+](C)(C)C[C@H](O)CC(=O)[O-] [LEVOCARNITINE] | > 30 µM | > 30 µM | > 30 µM | > 30 µM | > 30 µM | > 30 µM | – | – | –
COc1cc2nc(N3CCN(C(=O)C4CCCO4)CC3)nc(N)c2cc1OC (stereo unspecified) [TERAZOSIN] | > 30 µM | > 30 µM | > 30 µM | > 30 µM | – | 27.8 µM | – | – | > 30 µM
CN1C(C(=O)Nc2ccccn2)=C(O)c2ccccc2S1(=O)=O [PIROXICAM] | > 30 µM | > 30 µM | > 30 µM | > 30 µM | > 30 µM | > 30 µM | – | > 30 µM | > 10 µM
CC(CCc1ccccc1)NCC(O)c1ccc(O)c(C(N)=O)c1 (stereo unspecified) [LABETALOL] | 0.104 µM | 2.42 µM | > 30 µM | 4.04 µM | > 30 µM | > 30 µM | – | – | –
O=C(O)CO [GLYCOLIC ACID] | > 30 µM | > 30 µM | > 30 µM | > 30 µM | > 30 µM | > 30 µM | – | – | –
CC(C)Cc1ccc(C(C)C(=O)O)cc1 (stereo unspecified) [IBUPROFEN] | > 30 µM | > 30 µM | > 30 µM | > 30 µM | > 30 µM | > 30 µM | – | > 10 µM | > 30 µM
OC[C@H]1O[C@@](CO)(O[C@H]2O[C@H](CO)[C@@H](O)[C@H](O)[C@H]2O)[C@@H](O)[C@@H]1O [SUCROSE] | > 30 µM | > 30 µM | > 30 µM | > 30 µM | > 30 µM | > 30 µM | – | – | > 30 µM
CN(C)[C@@H]1C(O)=C(C(N)=O)C(=O)[C@@]2(O)C(O)=C3C(=O)c4c(O)ccc(Cl)c4[C@@](C)(O)[C@H]3C[C@@H]12 [CHLORTETRACYCLINE] | > 30 µM | > 30 µM | > 30 µM | > 30 µM | > 30 µM | > 30 µM | – | – | –
CC(N)C12CC3CC(CC(C3)C1)C2 (stereo unspecified) [RIMANTADINE] | – | – | – | – | – | – | – | > 10 µM | > 10 µM
C[C@@H]1C[C@H]2[C@@H]3CCC4=CC(=O)C=C[C@]4(C)[C@@]3(Cl)[C@@H](O)C[C@]2(C)[C@@]1(OC(=O)c1ccco1)C(=O)CCl [MOMETASONE FUROATE] | > 30 µM | > 30 µM | > 30 µM | > 30 µM | – | > 30 µM | > 30 µM | – | –
CC1=C(/C=C/C(C)=C/C=C/C(C)=C/C(=O)O)C(C)(C)CCC1 [TRETINOIN] | > 30 µM | > 30 µM | > 30 µM | 10.5 µM | 4.24 µM | > 30 µM | – | – | –
C=CC[C@@H]1/C=C(\C)C[C@H](C)C[C@H](OC)[C@H]2O[C@@](O)(C(=O)C(=O)N3CCCC[C@H]3C(=O)O[C@H](/C(C)=C/[C@@H]3CC[C@@H](O)[C@H](OC)C3)[C@H](C)[C@@H](O)CC1=O)[C@H](C)C[C@@H]2OC [TACROLIMUS ANHYDROUS] | – | – | – | – | – | – | – | > 30 µM | 7.49 µM and > 30 µM
